Test systems include CCRF-CEM leukemia; HCT-116 colon; HOP-62 NSCLC; KM12 colon; M14 melanoma; OVCAR-8 ovarian; SK-OV-3 ovarian; U251 CNS; UACC-257 melanoma; UACC-62 melanoma.
Common to all, as to experiment: NCI-60 cell line screen, 48 h

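Values below derive from 48-hour exposures of cells grown in 96-well plates, with endpoints linearly interpolated between the two concentrations bracketing the appropriate inhibition level. TGI: concentration producing complete growth inhibition.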

Turning to `O=c1[nH]c2cc([N+](=O)[O-])c(N/N=C/c3ccc(Cl)cc3Cl)c([N+](=O)[O-])c2[nH]1`, the TGI in the assay on CCRF-CEM leukemia is above 100 µM; in the assay on HCT-116 colon, above 100 µM; in the assay with HOP-62 NSCLC, above 100 µM; in the assay with KM12 colon, 25.8 µM; with M14 melanoma it was above 100 µM; in the assay with OVCAR-8 ovarian, above 100 µM. In addition, the TGI in the assay with SK-OV-3 ovarian was 77.5 µM; in the assay with U251 CNS, above 100 µM; with UACC-257 melanoma, above 100 µM; in the assay on UACC-62 melanoma, above 100 µM.

On to `Cn1cc(-c2nnc(-c3ccc(Cl)cc3)[nH]c2=O)c2ccccc21`, for which the TGI with CCRF-CEM leukemia was above 22.7 µM; in the assay on HCT-116 colon, above 66.3 µM; in the assay with HOP-62 NSCLC, above 75.8 µM; in the assay with KM12 colon it was above 23.9 µM; in the assay on M14 melanoma, above 100 µM; with OVCAR-8 ovarian it was above 100 µM. For the same molecule, the TGI in the assay on SK-OV-3 ovarian was above 69.8 µM; with U251 CNS it was above 37.5 µM; in the assay on UACC-257 melanoma it was above 24.3 µM; in the assay on UACC-62 melanoma, above 51.9 µM.

With `N=C(N)c1ccc(N=Nc2c(O)ccc3cc4c(N=Nc5ccc(C(=N)N)cc5)c(O)ccc4cc23)cc1`, the TGI in the assay with CCRF-CEM leukemia, in the assay with HCT-116 colon, with HOP-62 NSCLC, in the assay with KM12 colon, with M14 melanoma and with OVCAR-8 ovarian was above 100 µM throughout. The TGI in the assay on SK-OV-3 ovarian, in the assay on U251 CNS, with UACC-257 melanoma and in the assay with UACC-62 melanoma was above 100 µM each time.

Values taken from PubChem BioAssay (NCI).
